Laboratory results taken from PubChem BioAssay AID1918991 (Molecular Pharmacology Branch, DTP, NCI, 2023).
Each block holds one molecule with its values, some of them ahead of it.

Test system: 186277-243-T-J2-PDC complex spheroid growth
Assay: Anticancer human tumor 186277-243-T-J2-PDC patient-derived colon adenocarcinoma cell line growth inhibition [AhR]
Conditions: for IC50: curve of first compound; for viability, T/C: stronger effect = lower value
Summary of the method: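 Spheroids combined tumor cells with HUVEC endothelial cells and human MSCs as stroma. AhR antagonists were paired with standard or investigational drugs, each dosed in half-log steps down from near clinical Cmax, or from 10 microM where Cmax was unknown.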

[1] = second compound 0.1 µM, first compound 0.00949 µM
[2] = second compound 0.1 µM, first compound 0.03 µM
[3] = second compound 0.1 µM, first compound 0.0949 µM
[4] = second compound 0.1 µM, first compound 0.3 µM
[5] = second compound 0.316 µM, first compound 0.00949 µM
[6] = second compound 0.316 µM, first compound 0.03 µM
[7] = second compound 0.316 µM, first compound 0.0949 µM
[8] = second compound 0.316 µM, first compound 0.3 µM
[9] = second compound 1 µM, first compound 0.00949 µM
[10] = second compound 1 µM, first compound 0.03 µM
[11] = second compound 1 µM, first compound 0.0949 µM
[12] = second compound 1 µM, first compound 0.3 µM
[13] = second compound 3.16 µM, first compound 0.00949 µM
[14] = second compound 3.16 µM, first compound 0.03 µM
[15] = second compound 3.16 µM, first compound 0.0949 µM
[16] = second compound 3.16 µM, first compound 0.3 µM
[17] = second compound 10 µM, first compound 0.00949 µM
[18] = second compound 10 µM, first compound 0.03 µM
[19] = second compound 10 µM, first compound 0.0949 µM
[20] = second compound 10 µM, first compound 0.3 µM
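Also: spheroids exposed to compounds for seven days before the viability read.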
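For viability, T/C in this document: luminescent signal used as a stand-in for viable cell amount; 100% = DMSO vehicle control wells.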

IC50 (second compound 0.1 µM): 3230 nM
IC50 (second compound 0.316 µM): 3710 nM
IC50 (second compound 1 µM): 3030 nM
IC50 (second compound 3.16 µM): 2560 nM
IC50 (second compound 10 µM): 1620 nM
SMILES: COc1ccc([C@@H](O)c2cc(-c3ncnc4cc(N5CCOCC5)ccc34)c(F)cc2Cl)nn1 + CC(CO)NC(=O)c1cc(-c2ccc(Cl)cc2)nn(-c2cnn(C)c2)c1=O
viability, T/C (second compound 0.1 µM, first compound 0.0316 µM): 105%
viability, T/C (second compound 0.1 µM, first compound 0.1 µM): 96.3%
viability, T/C (second compound 0.1 µM, first compound 0.316 µM): 96.8%
viability, T/C (second compound 0.1 µM, first compound 1 µM): 73.5%
viability, T/C (second compound 0.1 µM, first compound 3.16 µM): 51.6%
viability, T/C (second compound 0.1 µM, first compound 10 µM): 20.7%
viability, T/C (second compound 0.316 µM, first compound 0.0316 µM): 109%
viability, T/C (second compound 0.316 µM, first compound 0.1 µM): 98.8%
viability, T/C (second compound 0.316 µM, first compound 0.316 µM): 84.2%
viability, T/C (second compound 0.316 µM, first compound 1 µM): 85.1%
viability, T/C (second compound 0.316 µM, first compound 3.16 µM): 53.9%
viability, T/C (second compound 0.316 µM, first compound 10 µM): 18.4%
viability, T/C (second compound 1 µM, first compound 0.0316 µM): 95.5%
viability, T/C (second compound 1 µM, first compound 0.1 µM): 95.6%
viability, T/C (second compound 1 µM, first compound 0.316 µM): 87.3%
viability, T/C (second compound 1 µM, first compound 1 µM): 78.8%
viability, T/C (second compound 1 µM, first compound 3.16 µM): 48.4%
viability, T/C (second compound 1 µM, first compound 10 µM): 19.1%
viability, T/C (second compound 3.16 µM, first compound 0.0316 µM): 88.3%
viability, T/C (second compound 3.16 µM, first compound 0.1 µM): 95.7%
viability, T/C (second compound 3.16 µM, first compound 0.316 µM): 87%
viability, T/C (second compound 3.16 µM, first compound 1 µM): 74.8%
viability, T/C (second compound 3.16 µM, first compound 3.16 µM): 44.5%
viability, T/C (second compound 3.16 µM, first compound 10 µM): 18.1%
viability, T/C (second compound 10 µM, first compound 0.0316 µM): 88.8%
viability, T/C (second compound 10 µM, first compound 0.1 µM): 72.6%
viability, T/C (second compound 10 µM, first compound 0.316 µM): 78.9%
viability, T/C (second compound 10 µM, first compound 1 µM): 64%
viability, T/C (second compound 10 µM, first compound 3.16 µM): 30.7%
viability, T/C (second compound 10 µM, first compound 10 µM): 15.6%

IC50 (second compound 0.1 µM): 139 nM
IC50 (second compound 0.316 µM): 118 nM
IC50 (second compound 1 µM): 132 nM
IC50 (second compound 3.16 µM): 142 nM
IC50 (second compound 10 µM): 118 nM
SMILES: Nc1ncn(C2CC(O)C(CO)S2)c(=O)n1 (stereo not given) + CC(CO)NC(=O)c1cc(-c2ccc(Cl)cc2)nn(-c2cnn(C)c2)c1=O
viability, T/C (second compound 0.1 µM, first compound 0.000949 µM): 101%
viability, T/C (second compound 0.1 µM, first compound 0.003 µM): 94.8%
viability, T/C [1]: 93%
viability, T/C [2]: 85.6%
viability, T/C [3]: 59.6%
viability, T/C [4]: 29.9%
viability, T/C (second compound 0.316 µM, first compound 0.000949 µM): 83.6%
viability, T/C (second compound 0.316 µM, first compound 0.003 µM): 92.8%
viability, T/C [5]: 92.8%
viability, T/C [6]: 93.1%
viability, T/C [7]: 55%
viability, T/C [8]: 29.1%
viability, T/C (second compound 1 µM, first compound 0.000949 µM): 102%
viability, T/C (second compound 1 µM, first compound 0.003 µM): 100%
viability, T/C [9]: 99.4%
viability, T/C [10]: 94.2%
viability, T/C [11]: 56.7%
viability, T/C [12]: 33.1%
viability, T/C (second compound 3.16 µM, first compound 0.000949 µM): 82%
viability, T/C (second compound 3.16 µM, first compound 0.003 µM): 93%
viability, T/C [13]: 92%
viability, T/C [14]: 85%
viability, T/C [15]: 59.8%
viability, T/C [16]: 32%
viability, T/C (second compound 10 µM, first compound 0.000949 µM): 89.1%
viability, T/C (second compound 10 µM, first compound 0.003 µM): 75.1%
viability, T/C [17]: 89.1%
viability, T/C [18]: 66.8%
viability, T/C [19]: 55.1%
viability, T/C [20]: 34.2%

IC50 (second compound 0.1 µM): 86.6 nM
IC50 (second compound 0.316 µM): 89.2 nM
IC50 (second compound 1 µM): 73.2 nM
IC50 (second compound 3.16 µM): 72.9 nM
IC50 (second compound 10 µM): 43.9 nM
SMILES: O=C(C=Cn1cnc(-c2cc(C(F)(F)F)cc(C(F)(F)F)c2)n1)NNc1cnccn1 + CC(CO)NC(=O)c1cc(-c2ccc(Cl)cc2)nn(-c2cnn(C)c2)c1=O
viability, T/C [1]: 80.4%
viability, T/C [2]: 78.3%
viability, T/C [3]: 46.8%
viability, T/C [4]: 13.1%
viability, T/C (second compound 0.1 µM, first compound 0.949 µM): 3.75%
viability, T/C (second compound 0.1 µM, first compound 3 µM): 1.33%
viability, T/C [5]: 78%
viability, T/C [6]: 83.5%
viability, T/C [7]: 46.7%
viability, T/C [8]: 12.6%
viability, T/C (second compound 0.316 µM, first compound 0.949 µM): 4.18%
viability, T/C (second compound 0.316 µM, first compound 3 µM): 1.56%
viability, T/C [9]: 83.3%
viability, T/C [10]: 67.6%
viability, T/C [11]: 46.9%
viability, T/C [12]: 13.4%
viability, T/C (second compound 1 µM, first compound 0.949 µM): 4.21%
viability, T/C (second compound 1 µM, first compound 3 µM): 1.3%
viability, T/C [13]: 67.8%
viability, T/C [14]: 63.8%
viability, T/C [15]: 46%
viability, T/C [16]: 12.6%
viability, T/C (second compound 3.16 µM, first compound 0.949 µM): 4.26%
viability, T/C (second compound 3.16 µM, first compound 3 µM): 2.11%
viability, T/C [17]: 62%
viability, T/C [18]: 55%
viability, T/C [19]: 38%
viability, T/C [20]: 11.7%
viability, T/C (second compound 10 µM, first compound 0.949 µM): 3.48%
viability, T/C (second compound 10 µM, first compound 3 µM): 2.03%
